Test [1] concerns the target T1, GK-GKRP (glucokinase / glucokinase regulatory protein) (Homo sapiens, UniProt Q14397).
T1 sequence (Q14397 1-625): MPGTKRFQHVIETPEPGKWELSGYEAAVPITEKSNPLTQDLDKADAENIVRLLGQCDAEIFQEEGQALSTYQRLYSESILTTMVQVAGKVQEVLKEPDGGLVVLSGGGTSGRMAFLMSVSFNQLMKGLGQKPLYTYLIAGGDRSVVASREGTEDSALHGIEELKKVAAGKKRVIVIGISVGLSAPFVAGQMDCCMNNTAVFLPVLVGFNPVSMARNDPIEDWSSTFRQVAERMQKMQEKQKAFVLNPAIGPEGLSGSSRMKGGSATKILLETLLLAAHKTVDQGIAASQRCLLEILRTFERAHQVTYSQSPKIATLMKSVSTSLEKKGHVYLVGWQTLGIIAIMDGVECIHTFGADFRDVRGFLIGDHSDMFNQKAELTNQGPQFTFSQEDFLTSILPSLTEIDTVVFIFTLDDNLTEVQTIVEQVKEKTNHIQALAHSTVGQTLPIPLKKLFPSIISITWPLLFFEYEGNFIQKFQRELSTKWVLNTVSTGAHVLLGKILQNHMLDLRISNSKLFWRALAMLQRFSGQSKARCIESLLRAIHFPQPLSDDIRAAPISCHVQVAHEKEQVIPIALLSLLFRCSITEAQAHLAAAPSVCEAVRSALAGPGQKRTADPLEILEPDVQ
The experiment in a line: GKRP LC MS/MS Biochemical Assay (LCMS/MS). The conditions noted are these: formation of 13C-glucose-6-phosphate from 13C-glucose by LC MS/MS, human His-hepatic GK, fructose-6-phosphate. In a few lines:
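Human His-tagged hepatic GK (30 nM working stock, 5×) with GKRP in 50 mM Tris pH 7.5, 4 mM MgCl2, 6% DMSO; compound preincubated 30 min, then GK added for 30 min at room temperature. Acetonitrile-stopped; 13C-glucose-6-phosphate formed from 13C-glucose quantified by LC MS/MS.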

Test [2] has as its target T2, GK-GKRP (interaction between glucokinase and glucokinase regulatory protein) (Homo sapiens, UniProt Q14397).
T2 construct: made in house; host or cells: GKRP: baculovirus system
T2 sequence (Q14397 1-625): T1 sequence (Q14397 1-625)
The experiment in a line: GK-GKRP Binding Assay (Binding), AlphaScreen. As to conditions: avi-tagged GKRP, GK-fluorescein, AlphaScreen beads, 1 μM sorbitol-6-phosphate; read-out: GK-GKRP IC50 (Binding). The essentials: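 Biotinylated, C-terminally avi-tagged human GKRP was preincubated 20 min at room temperature with compound, then fluorescein-labelled human hepatic GK was added (6 nM in the added buffer). The mix was incubated 2 h at room temperature in the dark before AlphaScreen reading. Buffer was 20 mM Tris pH 7.5, 0.05% BSA, 1 mM DTT, 1 μM sorbitol-6-phosphate.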
In general terms: Alpha assays give light when donor and acceptor beads are brought close together.

Take `COc1ccccc1C(NS(=O)(=O)c1ccc2c(c1)OCCCO2)c1cc2cccnc2s1` (racemic) [Example 47, N-((2-methoxyphenyl)(thieno[2,3-b]pyridin-2-yl)methyl)-3,4-dihydro-2H-1,5-benzodioxepine-7-sulfonamide]: it took 59 nM to reach a half-maximal effect in test [1] (EC50). For the same compound, the IC50 (usually the concentration at which inhibition is half-maximal) in test [2] is 27 nM.

`CSc1ccccc1C(NS(=O)(=O)c1ccc2c(c1)OCCCO2)c1cc2cccnc2s1` (racemic) [Example 48, N-((2-(methylsulfanyl)phenyl)(thieno[2,3-b]pyridin-2-yl)methyl)-3,4-dihydro-2H-1,5-benzodioxepine-7-sulfonamide]: the EC50 (usually the concentration at which the effect is half-maximal) in test [1] amounted to 22 nM. Further, the IC50 in test [2] worked out at 10 nM.

In test [1], `COc1cccnc1C(NS(=O)(=O)c1ccc2c(c1)OCCCO2)c1cc2cccnc2s1` (racemic) [Example 49, N-((3-methoxy-2-pyridinyl)(thieno[2,3-b]pyridin-2-yl)methyl)-3,4-dihydro-2H-1,5-benzodioxepine-7-sulfonamide] displayed an EC50 of 150 nM. For the same compound, the IC50 in test [2] amounted to 93 nM.

Take `COc1cnccc1C(NS(=O)(=O)c1ccc2c(c1)OCCCO2)c1cc2cccnc2s1` (racemic) [Example 50, N-((3-methoxy-4-pyridinyl)(thieno[2,3-b]pyridin-2-yl)methyl)-3,4-dihydro-2H-1,5-benzodioxepine-7-sulfonamide]: the EC50 in test [1] is 480 nM. In addition, in test [2], the IC50 was determined as 410 nM.

Compound `COc1ccccc1C(NS(=O)(=O)c1ccc2c(c1)OCCCO2)c1nc2ccccc2s1` (racemic) [Example 51, N-(1,3-benzothiazol-2-yl(2-methoxyphenyl)methyl)-3,4-dihydro-2H-1,5-benzodioxepine-7-sulfonamide] gave an EC50 in test [1] of 68 nM. Further, in test [2], the IC50 came to 42 nM.

In turn, `CSc1ccccc1C(NS(=O)(=O)c1ccc2c(c1)OCCCO2)c1nc2ccccc2s1` (racemic) [Example 52, N-(1,3-benzothiazol-2-yl(2-(methylsulfanyl)phenyl)methyl)-3,4-dihydro-2H-1,5-benzodioxepine-7-sulfonamide] returned an EC50 in test [1] of 29 nM. Besides, the IC50 in test [2] is 6 nM.

Regarding `COc1cccnc1C(NS(=O)(=O)c1ccc2c(c1)OCCCO2)c1nc2ccccc2s1` (racemic) [Example 53, N-(1,3-benzothiazol-2-yl(3-methoxy-2-pyridinyl)methyl)-3,4-dihydro-2H-1,5-benzodioxepine-7-sulfonamide], a half-maximal response in test [1] (EC50) required 360 nM. Besides, the IC50 in test [2] came out at 270 nM.

For the compound `O=S(=O)(NC(c1ccccc1)c1nc2ccccc2o1)c1ccc2c(c1)OCCCO2` (racemic) [Example 54, N-(1,3-benzoxazol-2-yl(phenyl)methyl)-3,4-dihydro-2H-1,5-benzo dioxepine-7-sulfonamide], the EC50 in test [1] turned out to be 750 nM. The IC50 in test [2] stood at 1100 nM.

`O=S(=O)(NC(c1ccccc1)c1ccc2ccccc2c1)c1ccc2c(c1)OCCCO2` (racemic) [Example 55, N-(2-naphthalenyl(phenyl)methyl)-3,4-dihydro-2H-1,5-benzo dioxepine-7-sulfonamide] had an EC50 in test [1] of 240 nM. Further, in test [2], the IC50 is 860 nM.

`O=S(=O)(NC(c1ccccc1)c1ccc2ccccc2n1)c1ccc2c(c1)OCCCO2` (racemic) [Example 56, N-(phenyl(2-quinolinyl)methyl)-3,4-dihydro-2H-1,5-benzodioxepine-7-sulfonamide] showed an EC50 in test [1] of 720 nM. For the same compound, in test [2], the IC50 came out at 1400 nM.

`O=S(=O)(NC(c1ccccc1)c1cc2ccccc2s1)c1ccc2c(c1)OCCCO2` (racemic) [Example 57, N-(1-benzothiophen-2-yl(phenyl)methyl)-3,4-dihydro-2H-1,5-benzodioxepine-7-sulfonamide] came in with a half-maximal effective concentration (EC50) in test [1] of 110 nM. Besides, the IC50 in test [2] is 310 nM.

`COc1ccc2sc(C(NS(=O)(=O)c3ccc4c(c3)OCCCO4)c3ccccc3)cc2c1` (racemic) [Example 58, N-((5-methoxy-1-benzothiophen-2-yl)(phenyl)methyl)-3,4-dihydro-2H-1,5-benzodioxepine-7-sulfonamide] yielded an EC50 in test [1] of 200 nM. For the same compound, the IC50 in test [2] came to 790 nM.

In the case of `O=S(=O)(NC(c1ccccc1)c1nc2ccccc2s1)c1ccc2c(c1)OCCCO2` (racemic) [Example 59, N-(1,3-benzothiazol-2-yl(phenyl)methyl)-3,4-dihydro-2H-1,5-benzodioxepine-7-sulfonamide], the EC50 in test [1] is 300 nM. In addition, in test [2], the IC50 was 630 nM.

For `O=S(=O)(NC(c1ccccc1)c1cc2ccncc2s1)c1ccc2c(c1)OCCCO2` (racemic) [Example 60, N-(phenyl(thieno[2,3-c]pyridin-2-yl)methyl)-3,4-dihydro-2H-1,5-benzodioxepine-7-sulfonamide], the EC50 in test [1] amounted to 570 nM. The IC50 in test [2] stood at 360 nM.

In test [1], `O=S(=O)(NC(c1ccccc1)c1cc2ncccc2s1)c1ccc2c(c1)OCCCO2` (racemic) [Example 61, N-(phenyl(thieno[3,2-b]pyridin-2-yl)methyl)-3,4-dihydro-2H-1,5-benzodioxepine-7-sulfonamide] returned an EC50 of 2500 nM. For the same compound, the IC50 in test [2] was 2300 nM.

In the case of `O=S(=O)(NC(c1ccccc1)c1cc2cnccc2s1)c1ccc2c(c1)OCCCO2` (racemic) [Example 62, N-(phenyl(thieno[3,2-c]pyridin-2-yl)methyl)-3,4-dihydro-2H-1,5-benzodioxepine-7-sulfonamide], in test [1], it took 4600 nM to reach a half-maximal effect (EC50). Also, the IC50 in test [2] was found to be 11000 nM.

In test [1], `O=S(=O)(NC(c1ccccc1)c1cc2cc(O)ccc2s1)c1ccc2c(c1)OCCCO2` (racemic) [Example 63, N-((5-hydroxy-1-benzothiophen-2-yl)(phenyl)methyl)-3,4-dihydro-2H-1,5-benzodioxepine-7-sulfonamide] registered an EC50 of 3200 nM. The IC50 in test [2] came out at 4200 nM.

`CSc1ccccc1C(NS(=O)(=O)c1ccc2c(c1)OCCCO2)c1cc2ccncc2s1` (racemic) [Example 64, N-((2-(methylsulfanyl)phenyl)(thieno[2,3-c]pyridin-2-yl)methyl)-3,4-dihydro-2H-1,5-benzodioxepine-7-sulfonamide] showed an EC50 in test [1] of 20 nM. Also, the IC50 in test [2] turned out to be 4 nM.

`CSc1ccccc1C(NS(=O)(=O)c1ccc2c(c1)OCCCO2)c1nc2cccnc2s1` (racemic) [Example 65, N-((2-(methylsulfanyl)phenyl)([1,3]thiazolo[5,4-b]pyridin-2-yl)methyl)-3,4-dihydro-2H-1,5-benzodioxepine-7-sulfonamide]: in test [1], the EC50 was found to be 37 nM. Also, in test [2], the IC50 worked out at 9 nM.

Take `COc1ccccc1C(NS(=O)(=O)c1ccc2c(c1)OCCCO2)c1cc2ccncc2s1` (racemic) [Example 66, N-((2-methoxyphenyl)(thieno[2,3-c]pyridin-2-yl)methyl)-3,4-dihydro-2H-1,5-benzodioxepine-7-sulfonamide]: in test [1], the midpoint of the response, the EC50, lay at 82 nM. For the same compound, in test [2], the IC50 amounted to 72 nM.

In test [1], `COc1ccccc1C(NS(=O)(=O)c1ccc2c(c1)OCCCO2)c1nc2cccnc2s1` (racemic) [Example 67, N-((2-methoxyphenyl)([1,3]thiazolo[5,4-b]pyridin-2-yl)methyl)-3,4-dihydro-2H-1,5-benzodioxepine-7-sulfonamide] came in with an EC50 of 95 nM. Also, in test [2], the IC50 stood at 58 nM.

On to `O=S(=O)(NC(c1nc2cccnc2s1)c1ccccc1Cl)c1ccc2c(c1)OCCCO2` (racemic) [Example 68, N-((2-chlorophenyl)([1,3]thiazolo[5,4-b]pyridin-2-yl)methyl)-3,4-dihydro-2H-1,5-benzodioxepine-7-sulfonamide], for which, in test [1], a half-maximal response (EC50) required 63 nM. Moreover, the IC50 in test [2] was 54 nM.

Compound `C[C@](O)(c1ccnc(-c2cccc3cc([C@@H](NS(=O)(=O)c4ccc5c(c4)OCCCO5)c4ccccc4)sc23)c1)C(F)(F)F` (racemic) [Example 70, N-(phenyl(7-(4-(2,2,2-trifluoro-1-hydroxy-1-methylethyl)-2-pyridinyl)-1-benzothiophen-2-yl)methyl)-3,4-dihydro-2H-1,5-benzodioxepine-7-sulfonamide] returned an EC50 in test [1] of 26 nM. The half-inhibitory concentration (IC50) in test [2] is 21 nM.

Take `O=S(=O)(NC(c1ccccc1)c1cc2cccc(-c3ccccn3)c2s1)c1ccc2c(c1)OCCCO2` (racemic) [Example 71, N-(phenyl(7-(2-pyridinyl)-1-benzothiophen-2-yl)methyl)-3,4-dihydro-2H-1,5-benzodioxepine-7-sulfonamide]: in test [1], the response was half-maximal at 290 nM (EC50). The IC50 in test [2] was 540 nM.

The values above are taken from patent US20140155415A1, “BENZ[…] BENZODIOXINE COMPOUNDS THAT INTERACT WITH G[…] FOR THE TREATMENT OF DIABETES” (priority 2011, published 2014).
